Reference: ChEMBL document CHEMBL4619721, “Design, synthesis & biological evaluation of ferulic acid-based small molecule inhibitors against tumor-associated carbonic anhydrase IX” (Bioorg Med Chem, 2020)
Active and inactive are the calls of the source. The calls are words filed in the database; no cut-off is given here.

How the values were obtained:
Carbonic anhydrase 9 [1] = target: T1, Carbonic anhydrase 9 (Homo sapiens, UniProt Q16790);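 further: esterase activity of the enzyme on p-nitrophenyl acetate, followed by UV-Vis spectrophotometry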
Description: Inhibition of human carbonic anhydrase 9 using p-nitrophenyl acetate as substrate by UV-VIS spectrophotometric analysis

Carbonic anhydrase 2 = Carbonic anhydrase 2 (Homo sapiens, UniProt P00918); experiment: Inhibition of human carbonic anhydrase 2 using p-nitrophenyl acetate as substrate by UV-VIS spectrophotometric analysis
[2] = target: Carbonic anhydrase 5A, mitochondrial (Homo sapiens, UniProt P35218); experiment: Inhibition of human carbonic anhydrase 5A using p-nitrophenyl acetate as substrate by UV-VIS spectrophotometric analysis
Homo sapiens [3] = species: Homo sapiens; experiment: Selectivity index, ratio of IC50 for human carbonic anhydrase 2 using p-nitrophenyl acetate as substrate to IC50 for human carbonic anhydrase 9 using p-nitrophenyl acetate as substrate
Homo sapiens [4] = species: Homo sapiens; experiment: Selectivity index, ratio of IC50 for human carbonic anhydrase 2 using p-nitrophenyl acetate as substrate to IC50 for human carbonic anhydrase 5A using p-nitrophenyl acetate as substrate by
Carbonic anhydrase 9 [5] = target: T1, Carbonic anhydrase 9; experiment: Binding affinity to human carbonic anhydrase 9 assessed as dissociation constant by isothermal titration calorimetric assay
Albumin = Albumin (Homo sapiens, UniProt P02768); experiment: Binding affinity to human serum albumin assessed as decrease in emission intensity by fluorescence emission spectrum based Stern-Volmer method; assay type: ADME; conditions: isolated protein
HT-29 [6] = experiment: Cytotoxicity against human HT-29 cells assessed as reduction in cell viability after 48 hrs by MTT assay; assay type: functional, cell-based; conditions: HT-29, 48 h
HepG2 [7] = experiment: Cytotoxicity against human HepG2 cells assessed as reduction in cell viability after 48 hrs by MTT assay; assay type: functional, cell-based; conditions: HepG2, 48 h
HEK293 = experiment: Cytotoxicity against HEK293 cells assessed as reduction in cell viability measured after 48 or 72 hrs by MTT assay; assay type: cell-based; conditions: human, hek293, 72 h
HT-29 [8] = experiment: Down regulation of carbonic anhydrase 9 protein expression in human HT-29 cells by immunoblotting analysis; assay type: functional, cell-based
HepG2 [9] = experiment: Down regulation of carbonic anhydrase 9 protein expression in human HepG2 cells by immunoblotting analysis; assay type: functional, cell-based
HT-29 [10] = experiment: Down regulation of HIF1-alpha protein expression in human HT-29 cells by immunoblotting analysis; assay type: functional, cell-based
HepG2 [11] = experiment: Down regulation of HIF1-alpha protein expression in human HepG2 cells by immunoblotting analysis; assay type: functional, cell-based
HT-29 [12] = experiment: Antimigratory activity against human HT-29 cells assessed as inhibition of cell migration at IC50 concentration after 24 hrs by crystal violet staining microscopy based transwell migration assay; assay type: functional
HepG2 [13] = experiment: Antimigratory activity against human HepG2 cells assessed as inhibition of cell migration at IC50 concentration after 24 hrs by crystal violet staining microscopy based transwell migration assay; assay type: functional
HT-29 [14] = experiment: Inhibition of colony formation in human HT-29 cells at IC50 concentration after 10 days by crystal violet staining based colony formation assay; assay type: functional, cell-based
HepG2 [15] = experiment: Inhibition of colony formation in human HepG2 cells at IC50 concentration after 10 days by crystal violet staining based colony formation assay; assay type: functional, cell-based
HT-29 [16] = experiment: Effect on ephithelial-mesenchymal transition in human HT-29 cells assessed as decrease in snail expression at IC50 concentration after 48 hrs by immunoblotting analysis; assay type: functional, cell-based
HepG2 [17] = experiment: Effect on ephithelial-mesenchymal transition in human HepG2 cells assessed as decrease in snail expression at IC50 concentration after 48 hrs by immunoblotting analysis; assay type: functional, cell-based
HT-29 [18] = experiment: Effect on ephithelial-mesenchymal transition in human HT-29 cells assessed as decrease in slug expression at IC50 concentration after 48 hrs by immunoblotting analysis; assay type: functional, cell-based
HepG2 [19] = experiment: Effect on ephithelial-mesenchymal transition in human HepG2 cells assessed as decrease in slug expression at IC50 concentration after 48 hrs by immunoblotting analysis; assay type: functional, cell-based
HT-29 [20] = experiment: Effect on ephithelial-mesenchymal transition in human HT-29 cells assessed as decrease in Zeb1 expression at IC50 concentration after 48 hrs by immunoblotting analysis; assay type: functional, cell-based
HepG2 [21] = experiment: Effect on ephithelial-mesenchymal transition in human HepG2 cells assessed as decrease in Zeb1 expression at IC50 concentration after 48 hrs by immunoblotting analysis; assay type: functional, cell-based
HT-29 [22] = experiment: Effect on ephithelial-mesenchymal transition in human HT-29 cells assessed as increase in E-cadherin expression at IC50 concentration after 48 hrs by immunoblotting analysis; assay type: functional, cell-based
HepG2 [23] = experiment: Effect on ephithelial-mesenchymal transition in human HepG2 cells assessed as increase in E-cadherin expression at IC50 concentration after 48 hrs by immunoblotting analysis; assay type: functional, cell-based
HT-29 [24] = experiment: Induction of apoptosis in human HT-29 cells assessed as increase in cleaved PARP expression at IC50 concentration after 48 hrs by immunoblotting analysis; assay type: functional, cell-based
HepG2 [25] = experiment: Induction of apoptosis in human HepG2 cells assessed as increase in cleaved PARP expression at IC50 concentration after 48 hrs by immunoblotting analysis; assay type: functional, cell-based
HT-29 [26] = experiment: Induction of apoptosis in human HT-29 cells assessed as early apoptotic cells at IC50 concentration after 24 hrs by Annexin V-FITC/propidium iodide staining based flow cytometry (reference value: 0.73%); assay type: functional
HT-29 [27] = experiment: Induction of apoptosis in human HT-29 cells assessed as late apoptotic cells at IC50 concentration after 24 hrs by Annexin V-FITC/propidium iodide staining based flow cytometry (reference value: 0.089%); assay type: functional
HT-29 [28] = experiment: Induction of apoptosis in human HT-29 cells assessed as necrotic cells at IC50 concentration after 24 hrs by Annexin V-FITC/propidium iodide staining based flow cytometry (reference value: 0.68%); assay type: functional
HepG2 [29] = experiment: Induction of apoptosis in human HepG2 cells assessed as early apoptotic cells at IC50 concentration after 24 hrs by Annexin V-FITC/propidium iodide staining based flow cytometry (reference value: 0%); assay type: functional
HepG2 [30] = experiment: Induction of apoptosis in human HepG2 cells assessed as late apoptotic cells at IC50 concentration after 24 hrs by Annexin V-FITC/propidium iodide staining-based flow cytometric analysis (reference value: 0%); assay type: functional
HepG2 [31] = experiment: Induction of apoptosis in human HepG2 cells assessed as necrotic cells at IC50 concentration after 24 hrs by Annexin V-FITC/propidium iodide staining-based flow cytometric analysis (reference value: 1.14%); assay type: functional
HT-29 [32] = experiment: Induction of apoptosis in human HT-29 cells assessed as viable cells at IC50 concentration after 24 hrs by Annexin V-FITC/propidium iodide staining based flow cytometry (reference value: 98.5%); assay type: functional
HepG2 [33] = experiment: Induction of apoptosis in human HepG2 cells assessed as viable cells at IC50 concentration after 24 hrs by Annexin V-FITC/propidium iodide staining based flow cytometry (reference value: 98.9%); assay type: functional
HT-29 [34] = experiment: Induction of apoptosis in human HT-29 cells at 8.44 uM after 24 hrs by Annexin V-FITC/propidium iodide staining based flow cytometry relative to control; assay type: functional
HepG2 [35] = experiment: Induction of apoptosis in human HepG2 cells at 11.22 uM after 24 hrs by Annexin V-FITC/propidium iodide staining based flow cytometry relative to control; assay type: functional
HT-29 [36] = experiment: Down regulation of carbonic anhydrase 9 mRNA expression in human HT-29 cells by RT-PCR analysis; assay type: functional, cell-based
HepG2 [37] = experiment: Down regulation of carbonic anhydrase 9 mRNA expression in human HepG2 cells by RT-PCR analysis; assay type: functional, cell-based

Carbonic anhydrase 5A, mitochondrial, sequence (P35218 whole entry): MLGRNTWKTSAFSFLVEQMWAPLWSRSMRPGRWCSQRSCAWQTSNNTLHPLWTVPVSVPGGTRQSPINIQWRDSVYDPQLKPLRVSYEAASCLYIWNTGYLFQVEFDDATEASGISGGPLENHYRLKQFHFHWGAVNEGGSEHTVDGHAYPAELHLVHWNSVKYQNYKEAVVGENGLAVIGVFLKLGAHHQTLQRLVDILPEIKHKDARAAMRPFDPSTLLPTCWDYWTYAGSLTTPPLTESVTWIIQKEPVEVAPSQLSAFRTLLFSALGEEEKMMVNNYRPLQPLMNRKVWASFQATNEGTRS
Albumin, sequence (P02768 whole entry): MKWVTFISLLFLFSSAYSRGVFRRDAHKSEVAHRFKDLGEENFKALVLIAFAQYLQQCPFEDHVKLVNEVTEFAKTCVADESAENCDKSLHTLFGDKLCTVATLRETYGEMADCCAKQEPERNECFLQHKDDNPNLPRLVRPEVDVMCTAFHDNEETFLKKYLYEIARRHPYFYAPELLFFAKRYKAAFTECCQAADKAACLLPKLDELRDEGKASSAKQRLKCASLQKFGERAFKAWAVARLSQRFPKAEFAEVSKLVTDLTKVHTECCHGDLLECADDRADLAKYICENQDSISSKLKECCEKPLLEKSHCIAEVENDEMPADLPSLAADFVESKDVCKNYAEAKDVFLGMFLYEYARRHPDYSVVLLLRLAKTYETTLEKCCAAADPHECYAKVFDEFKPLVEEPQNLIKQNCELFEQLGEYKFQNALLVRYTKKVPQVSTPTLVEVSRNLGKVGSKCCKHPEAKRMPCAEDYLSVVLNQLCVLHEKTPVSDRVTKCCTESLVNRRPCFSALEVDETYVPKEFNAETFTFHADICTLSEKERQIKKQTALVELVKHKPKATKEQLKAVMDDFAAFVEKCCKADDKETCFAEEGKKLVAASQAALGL

For `COc1ccc(-n2cc(COc3ccc(/C=C/C(=O)O)cc3OC)nn2)cc1`, the IC50 (Carbonic anhydrase 9 [1]) was 4.76 µM.
In the case of `COc1cc(/C=C/C(=O)O)ccc1OCc1cn(-c2ccccc2)nn1`, the IC50 (Carbonic anhydrase 2) is reported as > 20 µM, the IC50 (Carbonic anhydrase 9 [1]) is reported as > 20 µM and the IC50 [2] is reported as > 20 µM.
`COc1cc(/C=C/C(=O)O)ccc1OCc1cn(-c2ccc([N+](=O)[O-])cc2)nn1` gave an IC50 (Carbonic anhydrase 9 [1]) of 1.45 µM.
With `COc1cc(/C=C/C(=O)O)ccc1OCc1cn(-c2ccccc2OC)nn1` the IC50 (Carbonic anhydrase 9 [1]) was 2.6 µM.
With `COc1cc(/C=C/C(=O)O)ccc1OCc1cn(-c2ccccc2F)nn1` the IC50 (Carbonic anhydrase 9 [1]) was 8.94 µM.
`COc1cc(/C=C/C(=O)O)ccc1OCc1cn(-c2ccccc2[N+](=O)[O-])nn1` showed an IC50 (Carbonic anhydrase 9 [1]) of 2.44 µM.
`COc1cc(/C=C/C(=O)O)ccc1OCc1cn(-c2cccc(F)c2)nn1` gave an IC50 (Carbonic anhydrase 9 [1]) of 12.2 µM.
For `COc1cc(/C=C/C(=O)O)ccc1O` [FERULATE], the IC50 (Carbonic anhydrase 2) was 6.44 µM, the IC50 (Carbonic anhydrase 9 [1]) was 9.39 µM and the IC50 [2] was 8.86 µM. It also gave a Ratio IC50 (Homo sapiens [3]) of 0.7 and a Ratio IC50 (Homo sapiens [4]) of 0.7.
Compound `COc1cc(/C=C/C(=O)O)ccc1OCc1cn(-c2ccccc2C)nn1` has an IC50 (Carbonic anhydrase 9 [1]) of 3.64 µM.
Work on `COc1cc(/C=C/C(=O)O)ccc1OCc1cn(-c2ccc(F)cc2)nn1` yielded an IC50 (Carbonic anhydrase 9 [1]) of 7.64 µM.
In the case of `COc1cc(/C=C/C(=O)O)ccc1OCc1cn(-c2ccc(Cl)cc2)nn1`, the IC50 (Carbonic anhydrase 9 [1]) is reported as 0.771 µM.
`COc1cccc(-n2cc(COc3ccc(/C=C/C(=O)O)cc3OC)nn2)c1` showed an IC50 (Carbonic anhydrase 9 [1]) of 1.96 µM.
Compound `COc1cc(/C=C/C(=O)O)ccc1OCc1cn(-c2cccc([N+](=O)[O-])c2)nn1` has an IC50 (Carbonic anhydrase 2) of 1.99 µM, an IC50 (Carbonic anhydrase 9 [1]) of 0.024 µM and an IC50 [2] of 1.1 µM. It also gave a Kd (Carbonic anhydrase 9 [5]) of 29 µM, a Ka (Albumin) of 5.46 ×10⁴ /M and an IC50 (HT-29 [6]) of 8.44 µM. The IC50 (HepG2 [7]) was 11.2 µM, the Activity (HEK293) was “Non-Toxic” and the Activity (HT-29 [8]) was “Active”. The Activity (HepG2 [9]) was “Active”, the Activity (HT-29 [10]) was “Active” and the Activity (HepG2 [11]) was “Active”. The Activity (HT-29 [12]) was “Active”, the Activity (HepG2 [13]) was “Active” and the inhibition (HT-29 [14]) was “Active”. For the same compound, the inhibition (HepG2 [15]) was “Active”, the Activity (HT-29 [16]) was “Active” and the Activity (HepG2 [17]) was “Active”. For the same compound, the Activity (HT-29 [18]) was “Active”, the Activity (HepG2 [19]) was “Active” and the Activity (HT-29 [20]) was “Active”. The Activity (HepG2 [21]) was “Active”, the Activity (HT-29 [22]) was “Active” and the Activity (HepG2 [23]) was “Active”. The Activity (HT-29 [24]) was “Active”, the Activity (HepG2 [25]) was “Active” and the Activity (HT-29 [26]) was 2.29%. For the same compound, the Activity (HT-29 [27]) was 10.5%, the Activity (HT-29 [28]) was 11.6% and the Activity (HepG2 [29]) was 2.17%. For the same compound, the Activity (HepG2 [30]) was 6.6%, the Activity (HepG2 [31]) was 10.3% and the Activity (HT-29 [32]) was 75.6%. For the same compound, the Activity (HepG2 [33]) was 80.9%, the Activity (HT-29 [34]) was 24.44% and the Activity (HepG2 [35]) was 19.22%. For the same compound, the Activity (HT-29 [36]) was “Active” and the Activity (HepG2 [37]) was “Active”.
Compound `COc1cc(/C=C/C(=O)O)ccc1OCc1cn(-c2ccc(C)cc2)nn1` has an IC50 (Carbonic anhydrase 9 [1]) of 4.22 µM.
Work on `COc1cc(/C=C/C(=O)O)ccc1OCc1cn(-c2cccc(C)c2)nn1` yielded an IC50 (Carbonic anhydrase 9 [1]) of 5.24 µM.
`COc1cc(/C=C/C(=O)O)ccc1OCc1cn(-c2ccccc2Cl)nn1` showed an IC50 (Carbonic anhydrase 9 [1]) of 14.5 µM.
For `COc1cc(/C=C/C(=O)O)ccc1OCc1cn(-c2cccc(Cl)c2)nn1`, the IC50 (Carbonic anhydrase 9 [1]) was 1.37 µM.
For `COc1cc(/C=C/C(=O)O)ccc1OCc1cn(-c2ccc(C(=O)O)cc2)nn1`, the IC50 (Carbonic anhydrase 9 [1]) was 0.92 µM.
